Drawing on paper PMC13043538, “In vitro thyroperoxidase inhibition assessment by LC-ICP-MS-based L-tyrosine iodination assay: comparison with Amplex Ultrared assay and its modifications” (Archives of Toxicology, 2026), this text covers IC50 for one compound.

Each structure is given as a SMILES string.

The target of this experiment is T1, human TPO (Homo sapiens, UniProt P07202).
T1 construct: expressed in transfected cells; host or cells: HEK293T (HEK-TPOA7 clone), whole-cell lysate in 0.1% sodium deoxycholate
T1 sequence (P07202 19-933): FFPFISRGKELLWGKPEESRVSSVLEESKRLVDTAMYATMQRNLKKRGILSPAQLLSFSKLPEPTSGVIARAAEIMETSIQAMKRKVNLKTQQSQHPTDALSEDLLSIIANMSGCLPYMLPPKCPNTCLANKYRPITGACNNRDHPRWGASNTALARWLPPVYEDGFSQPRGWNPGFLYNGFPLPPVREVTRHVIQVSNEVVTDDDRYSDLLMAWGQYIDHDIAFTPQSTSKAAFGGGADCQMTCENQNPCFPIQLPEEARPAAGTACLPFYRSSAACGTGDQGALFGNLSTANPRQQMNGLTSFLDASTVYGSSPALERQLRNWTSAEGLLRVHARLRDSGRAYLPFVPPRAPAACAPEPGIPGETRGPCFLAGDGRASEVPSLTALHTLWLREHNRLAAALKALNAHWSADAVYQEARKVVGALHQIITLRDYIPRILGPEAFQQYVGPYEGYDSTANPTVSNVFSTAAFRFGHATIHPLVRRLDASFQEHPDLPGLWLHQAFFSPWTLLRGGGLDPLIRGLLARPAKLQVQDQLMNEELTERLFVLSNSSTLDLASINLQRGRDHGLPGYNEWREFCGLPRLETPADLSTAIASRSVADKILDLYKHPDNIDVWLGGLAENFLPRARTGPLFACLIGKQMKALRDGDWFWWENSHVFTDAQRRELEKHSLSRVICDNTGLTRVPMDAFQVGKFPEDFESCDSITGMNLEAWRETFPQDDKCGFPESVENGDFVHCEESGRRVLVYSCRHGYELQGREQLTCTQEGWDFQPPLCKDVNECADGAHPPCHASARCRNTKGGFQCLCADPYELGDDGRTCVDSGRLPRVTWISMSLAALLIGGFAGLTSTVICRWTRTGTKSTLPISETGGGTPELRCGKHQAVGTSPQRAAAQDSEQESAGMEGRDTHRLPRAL
Put plainly: standard Amplex UltraRed (AUR) TPO assay, HEK-TPOA7 cell lysate, fluorescence. It is filed as biochemical. The settings on record: no modification, read-out: IC50 (± standard deviation). The procedure: Briefly, the cells were washed with phosphate-buffered saline (PBS), scraped, resuspended in PBS, and centrifuged for 5 min at 150 rcf. […] Lysed cells were centrifuged for 5 min at 12,000 rcf to extract the soluble protein fraction. The cell lysates were kept at − 80 °C for longer-term storage.

By IC50 is commonly meant the point on the concentration scale where inhibition reaches its midpoint. With `Oc1cc(Cl)ccc1Oc1ccc(Cl)cc1Cl` [TCS, Triclosan], the IC50 stood at 199 µM.
